According to patent US4349667A, “Aminoglycoside antibiotic G-367-2” (Toyo Jozo Kabushiki Kaisha, priority 1979, dated 1982):
≈ marks a conversion by molar mass, not a printed value.

Legend:
Format in all cases: cell-based
[1] = system: Bacillus subtilis ATCC 6633; assay: antimicrobial spectrum (MIC) by agar dilution method; settings: ATCC6633, read-out: minimum inhibitory concentration, MIC
Source text: (§1) The antimicrobial spectrum (minimum inhibitory concentration, MIC) of G-367-2 by agar dilution method is as follows: […]

[2] = system: Citrobacter freundii GN346; assay: as above; settings: GN346, read-out: minimum inhibitory concentration, MIC
Source text: as §1

[3] = system: Enterobacter aerogenes 0655; assay: as above; settings: Klebsiella aerogenes, read-out: minimum inhibitory concentration, MIC
Source text: as §1

[4] = system: Enterobacter cloacae GN336; assay: as above; settings: read-out: minimum inhibitory concentration, MIC
Source text: as §1

[5] = system: Escherichia coli NIHJ-JC2; assay: as above; settings: NIHJJC2, read-out: minimum inhibitory concentration, MIC
Source text: as §1

[6] = system: Escherichia coli W3630 RGN14; assay: as above; settings: W3630RGN14, read-out: minimum inhibitory concentration, MIC
Source text: as §1

Escherichia coli W3630 = assay: as above; settings: read-out: minimum inhibitory concentration, MIC
Source text: as §1

[7] = system: Klebsiella pneumonia ATC 10031; assay: as above; settings: Klebsiella pneumoniae, ATC10031, read-out: minimum inhibitory concentration, MIC
Source text: as §1

Proteus morganii 0239 = assay: as above; settings: Morganella morganii, read-out: minimum inhibitory concentration, MIC
Source text: as §1

Proteus rettgeri ACR = assay: as above; settings: Providencia rettgeri, read-out: minimum inhibitory concentration, MIC
Source text: as §1

[8] = system: Pseudomonas aeruginosa 1946; assay: as above; settings: read-out: minimum inhibitory concentration, MIC
Source text: as §1

[9] = system: Pseudomonas aeruginosa 2512; assay: as above; settings: read-out: minimum inhibitory concentration, MIC
Source text: as §1

[10] = system: Pseudomonas aeruginosa IAM1095; assay: as above; settings: read-out: minimum inhibitory concentration, MIC
Source text: as §1

[11] = system: Pseudomonas aeruginosa ML4561 RP4; assay: as above; settings: ML4561RP4, read-out: minimum inhibitory concentration, MIC
Source text: as §1

[12] = system: Pseudomonas aeruginosa ML4561 Rms164-1; assay: as above; settings: ML4561RMS1641, read-out: minimum inhibitory concentration, MIC
Source text: as §1

[13] = system: Pseudomonas aeruginosa ML4561 Rms166; assay: as above; settings: ML4561RMS166, read-out: minimum inhibitory concentration, MIC
Source text: as §1

[14] = system: Pseudomonas aeruginosa ML4561; assay: as above; settings: ML4561, read-out: minimum inhibitory concentration, MIC
Source text: as §1

[15] = system: Pseudomonas maltophilia 1850; assay: as above; settings: Stenotrophomonas maltophilia, read-out: minimum inhibitory concentration, MIC
Source text: as §1

Pseudomonas putida 1842 = assay: as above; settings: read-out: minimum inhibitory concentration, MIC
Source text: as §1

[16] = system: Salmonella enteritidis Gartner; assay: as above; settings: Salmonella enterica, read-out: minimum inhibitory concentration, MIC
Source text: as §1

Serratia marcescens = assay: as above; settings: read-out: minimum inhibitory concentration, MIC
Source text: as §1

Shigella sonnei E33 = assay: as above; settings: read-out: minimum inhibitory concentration, MIC
Source text: as §1

[17] = system: Staphylococcus aureus 0119; assay: as above; settings: read-out: minimum inhibitory concentration, MIC
Source text: as §1

[18] = system: Staphylococcus aureus ATCC 6538P; assay: as above; settings: ATCC6538P, read-out: minimum inhibitory concentration, MIC
Source text: as §1

[19] = system: Staphylococcus aureus MS 27; assay: as above; settings: MS27, read-out: minimum inhibitory concentration, MIC
Source text: as §1

[20] = system: Staphylococcus epidermidis sp-al-1; assay: as above; settings: SPAL1, read-out: minimum inhibitory concentration, MIC
Source text: as §1

[21] = system: Streptococcus pyogenes N.Y.5; assay: as above; settings: read-out: minimum inhibitory concentration, MIC
Source text: as §1

Gram negative bacteria = assay: antibacterial effect against Gram negative bacteria
Source text: as §1

How did the MIC [1] turn out when `CNC1C(O)C(OC2C(N)CC(N)C(OC3OC(CN)=CCC3N)C2O)OCC1(C)O` (stereo not shown) [G-367-2] was run?
Its MIC is 1.6 µg/mL (≈ 3.58 µM).

And the MIC [2]?
The MIC was 3.1 µg/mL (≈ 6.93 µM).

What about the MIC [3] of the same molecule?
The MIC was 1.6 µg/mL (≈ 3.58 µM).

What about the MIC [4] of the same molecule?
The MIC was 1.6 µg/mL (≈ 3.58 µM).

And the MIC [5]?
Its MIC is 3.1 µg/mL (≈ 6.93 µM).

What about the MIC [6] of the same molecule?
The MIC was 1.6 µg/mL (≈ 3.58 µM).

What about the MIC (Escherichia coli W3630) of the same molecule?
Its MIC is 1.6 µg/mL (≈ 3.58 µM).

And the MIC [7]?
Its MIC is 1.6 µg/mL (≈ 3.58 µM).

And the MIC (Proteus morganii 0239)?
Its MIC is 6.3 µg/mL (≈ 14.1 µM).

What about the MIC (Proteus rettgeri ACR) of the same molecule?
The MIC was 3.1 µg/mL (≈ 6.93 µM).

What about the MIC [8] of the same molecule?
The MIC was greater than 100 µg/mL.

And the MIC [9]?
Its MIC is greater than 100 µg/mL.

And the MIC [10]?
The MIC was 25 µg/mL (≈ 55.9 µM).

What about the MIC [11] of the same molecule?
Its MIC is 6.3 µg/mL (≈ 14.1 µM).

What about the MIC [12] of the same molecule?
The MIC was 50 µg/mL (≈ 112 µM).

What about the MIC [13] of the same molecule?
The MIC was greater than 100 µg/mL.

And the MIC [14]?
The MIC was 125 µg/mL (≈ 279 µM).

What about the MIC [15] of the same molecule?
The MIC was greater than 100 µg/mL.

What about the MIC (Pseudomonas putida 1842) of the same molecule?
Its MIC is greater than 100 µg/mL.

And the MIC [16]?
Its MIC is 3.1 µg/mL (≈ 6.93 µM).

And the MIC (Serratia marcescens)?
The MIC was 50 µg/mL (≈ 112 µM).

And the MIC (Shigella sonnei E33)?
Its MIC is 3.1 µg/mL (≈ 6.93 µM).

What about the MIC [17] of the same molecule?
Its MIC is 12.5 µg/mL (≈ 27.9 µM).

What about the MIC [18] of the same molecule?
The MIC was 12.5 µg/mL (≈ 27.9 µM).

And the MIC [19]?
Its MIC is 12.5 µg/mL (≈ 27.9 µM).

And the MIC [20]?
Its MIC is 1.6 µg/mL (≈ 3.58 µM).

What about the MIC [21] of the same molecule?
Its MIC is 6.3 µg/mL (≈ 14.1 µM).

And the antibacterial effect (Gram negative bacteria)?
Its antibacterial effect is “strong antibacterial effect”.
